Measured values: PubChem BioAssay (NCI)
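Assay format: 96-well plates, 48-hour exposure. GI50: concentration for 50% inhibition of growth. At the TGI there is no net growth.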

Columns and labels:
Test in all cases: inhibition of tumour cell growth, NCI panel, 48 h
HCT-116 colon = system: HCT-116 colon
SR leukemia = system: SR leukemia
786-0 renal = system: 786-0 renal
COLO 205 colon = system: COLO 205 colon
A549 NSCLC = system: A549 NSCLC
HS 578T breast = system: HS 578T breast
LOX IMVI melanoma = system: LOX IMVI melanoma
HOP-62 NSCLC = system: HOP-62 NSCLC
U251 CNS = system: U251 CNS
MDA-MB-435 = system: MDA-MB-435
UACC-62 melanoma = system: UACC-62 melanoma
A498 renal = system: A498 renal
OVCAR-8 ovarian = system: OVCAR-8 ovarian
T-47D breast = system: T-47D breast
NCI-H23 lung = system: NCI-H23 lung
OVCAR-5 ovarian = system: OVCAR-5 ovarian
HOP-92 NSCLC = system: HOP-92 NSCLC
ACHN renal = system: ACHN renal
NCI-H226 lung = system: NCI-H226 lung
MALME-3M melanoma = system: MALME-3M melanoma
HCT-15 colon = system: HCT-15 colon
HL-60(TB) leukemia = system: HL-60(TB) leukemia
SNB-19 CNS = system: SNB-19 CNS
CCRF-CEM leukemia = system: CCRF-CEM leukemia
OVCAR-4 ovarian = system: OVCAR-4 ovarian
HCC-2998 colon = system: HCC-2998 colon
KM12 colon = system: KM12 colon
SF-295 CNS = system: SF-295 CNS
SW-620 colon = system: SW-620 colon
MOLT-4 leukemia = system: MOLT-4 leukemia
UACC-257 melanoma = system: UACC-257 melanoma
PC-3 prostate = system: PC-3 prostate
RXF 393 renal = system: RXF 393 renal
NCI-H460 lung = system: NCI-H460 lung
M14 melanoma = system: M14 melanoma
OVCAR-3 ovarian = system: OVCAR-3 ovarian
SNB-75 CNS = system: SNB-75 CNS
NCI-H522 lung = system: NCI-H522 lung
SK-MEL-28 melanoma = system: SK-MEL-28 melanoma
BT-549 breast = system: BT-549 breast
TK-10 renal = system: TK-10 renal
NCI/ADR-RES ovarian = system: NCI/ADR-RES ovarian
SK-OV-3 ovarian = system: SK-OV-3 ovarian
MDA-MB-231 breast = system: MDA-MB-231 breast
SN12C renal = system: SN12C renal
SK-MEL-5 melanoma = system: SK-MEL-5 melanoma
IGROV1 ovarian = system: IGROV1 ovarian
EKVX NSCLC = system: EKVX NSCLC
SK-MEL-2 melanoma = system: SK-MEL-2 melanoma
DU-145 prostate = system: DU-145 prostate
RPMI-8226 leukemia = system: RPMI-8226 leukemia
HT29 colon = system: HT29 colon
UO-31 renal = system: UO-31 renal
SF-268 CNS = system: SF-268 CNS
SF-539 CNS = system: SF-539 CNS
CAKI-1 renal = system: CAKI-1 renal
MCF7 breast = system: MCF7 breast
K-562 leukemia = system: K-562 leukemia

`Nc1nc(Nc2ccc(C3CCC(N4CCOCC4)CC3)cc2)nn1-c1ccccn1` (stereo unspecified) was tested, and the GI50 (HCT-116 colon) was 2.92 µM, the TGI (HCT-116 colon) was 20.7 µM and the GI50 (SR leukemia) was 0.366 µM. The TGI (SR leukemia) was 3.29 µM, the GI50 (786-0 renal) was 2.22 µM and the TGI (786-0 renal) was 11.4 µM. It also gave a GI50 (COLO 205 colon) of 5.17 µM, a TGI (COLO 205 colon) of over 100 µM and a GI50 (A549 NSCLC) of 4.08 µM. The TGI (A549 NSCLC) was over 100 µM, the GI50 (HS 578T breast) was 1.64 µM and the TGI (HS 578T breast) was 7.41 µM. For the same compound, the GI50 (LOX IMVI melanoma) was 3.24 µM, the TGI (LOX IMVI melanoma) was 9.37 µM and the GI50 (HOP-62 NSCLC) was 3.04 µM. It also gave a TGI (HOP-62 NSCLC) of over 68.4 µM, a GI50 (U251 CNS) of 5.05 µM and a TGI (U251 CNS) of over 100 µM. It also gave a GI50 (MDA-MB-435) of 3.57 µM, a TGI (MDA-MB-435) of over 100 µM and a GI50 (UACC-62 melanoma) of 7.27 µM. The TGI (UACC-62 melanoma) was over 88.3 µM, the GI50 (A498 renal) was 5 µM and the TGI (A498 renal) was 20.1 µM. For the same compound, the GI50 (OVCAR-8 ovarian) was 11.6 µM, the TGI (OVCAR-8 ovarian) was over 100 µM and the GI50 (T-47D breast) was over 31.5 µM. The TGI (T-47D breast) was over 100 µM, the GI50 (NCI-H23 lung) was 2.61 µM and the TGI (NCI-H23 lung) was 47.7 µM. The GI50 (OVCAR-5 ovarian) was 4.17 µM, the TGI (OVCAR-5 ovarian) was over 100 µM and the GI50 (HOP-92 NSCLC) was 1.59 µM. The TGI (HOP-92 NSCLC) was over 27.5 µM, the GI50 (ACHN renal) was 4.26 µM and the TGI (ACHN renal) was over 100 µM. It also gave a GI50 (NCI-H226 lung) of 2.4 µM, a TGI (NCI-H226 lung) of over 58.4 µM and a GI50 (MALME-3M melanoma) of 5.58 µM. For the same compound, the TGI (MALME-3M melanoma) was over 46 µM, the GI50 (HCT-15 colon) was 3.6 µM and the TGI (HCT-15 colon) was over 100 µM. For the same compound, the GI50 (HL-60(TB) leukemia) was 2.55 µM, the TGI (HL-60(TB) leukemia) was 9.96 µM and the GI50 (SNB-19 CNS) was 7.38 µM. It also gave a TGI (SNB-19 CNS) of over 100 µM, a GI50 (CCRF-CEM leukemia) of 3.25 µM and a TGI (CCRF-CEM leukemia) of 55.9 µM. For the same compound, the GI50 (OVCAR-4 ovarian) was 12.4 µM, the TGI (OVCAR-4 ovarian) was over 84.9 µM and the GI50 (HCC-2998 colon) was 17.2 µM. For the same compound, the TGI (HCC-2998 colon) was over 100 µM, the GI50 (KM12 colon) was 0.18 µM and the TGI (KM12 colon) was 38 µM. It also gave a GI50 (SF-295 CNS) of 2.92 µM, a TGI (SF-295 CNS) of 10.9 µM and a GI50 (SW-620 colon) of 3.4 µM. For the same compound, the TGI (SW-620 colon) was over 100 µM, the GI50 (MOLT-4 leukemia) was 2.86 µM and the TGI (MOLT-4 leukemia) was 20.1 µM. For the same compound, the GI50 (UACC-257 melanoma) was 3.43 µM, the TGI (UACC-257 melanoma) was 12.2 µM and the GI50 (PC-3 prostate) was 5.76 µM. The TGI (PC-3 prostate) was over 100 µM, the GI50 (RXF 393 renal) was 2.03 µM and the TGI (RXF 393 renal) was 5.77 µM. For the same compound, the GI50 (NCI-H460 lung) was 4.59 µM, the TGI (NCI-H460 lung) was over 69.2 µM and the GI50 (M14 melanoma) was 4.36 µM. It also gave a TGI (M14 melanoma) of over 36.8 µM, a GI50 (OVCAR-3 ovarian) of 9.86 µM and a TGI (OVCAR-3 ovarian) of 44.6 µM. It also gave a GI50 (SNB-75 CNS) of 1.9 µM, a TGI (SNB-75 CNS) of 11.9 µM and a GI50 (NCI-H522 lung) of 8.51 µM. For the same compound, the TGI (NCI-H522 lung) was 32.7 µM, the GI50 (SK-MEL-28 melanoma) was 4.34 µM and the TGI (SK-MEL-28 melanoma) was 16.4 µM. For the same compound, the GI50 (BT-549 breast) was 2.52 µM, the TGI (BT-549 breast) was 6.54 µM and the GI50 (TK-10 renal) was over 21.5 µM. The TGI (TK-10 renal) was over 100 µM, the GI50 (NCI/ADR-RES ovarian) was 9.33 µM and the TGI (NCI/ADR-RES ovarian) was over 100 µM. The GI50 (SK-OV-3 ovarian) was 18.1 µM, the TGI (SK-OV-3 ovarian) was over 100 µM and the GI50 (MDA-MB-231 breast) was 5.34 µM. It also gave a TGI (MDA-MB-231 breast) of over 100 µM, a GI50 (SN12C renal) of 2.4 µM and a TGI (SN12C renal) of over 100 µM. The GI50 (SK-MEL-5 melanoma) was 20.8 µM, the TGI (SK-MEL-5 melanoma) was over 88.3 µM and the GI50 (IGROV1 ovarian) was 3.57 µM. For the same compound, the TGI (IGROV1 ovarian) was over 100 µM, the GI50 (EKVX NSCLC) was 8.21 µM and the TGI (EKVX NSCLC) was over 100 µM. For the same compound, the GI50 (SK-MEL-2 melanoma) was 7.77 µM, the TGI (SK-MEL-2 melanoma) was over 61.8 µM and the GI50 (DU-145 prostate) was 6.4 µM. It also gave a TGI (DU-145 prostate) of over 100 µM, a GI50 (RPMI-8226 leukemia) of 2.57 µM and a TGI (RPMI-8226 leukemia) of 6.1 µM. For the same compound, the GI50 (HT29 colon) was 3.11 µM, the TGI (HT29 colon) was over 100 µM and the GI50 (UO-31 renal) was 2.48 µM. It also gave a TGI (UO-31 renal) of over 33.7 µM, a GI50 (SF-268 CNS) of 2.93 µM and a TGI (SF-268 CNS) of over 100 µM. It also gave a GI50 (SF-539 CNS) of 1.42 µM, a TGI (SF-539 CNS) of 4.99 µM and a GI50 (CAKI-1 renal) of 2.44 µM. For the same compound, the TGI (CAKI-1 renal) was over 52.2 µM, the GI50 (MCF7 breast) was 3.23 µM and the TGI (MCF7 breast) was 35.3 µM. It also gave a GI50 (K-562 leukemia) of 2.83 µM and a TGI (K-562 leukemia) of over 100 µM.
